Target: T1, PI3Kγ (Homo sapiens, UniProt P48736)
T1 construct: HA; made in house; host or cells: Spodoptera frugiperda (Sf9) cells, baculovirus co-infection
Assay: PI3Kγ In Vitro Kinase Assay
Format: biochemical
Conditions: purified recombinant p101/p110 γ protein with G protein β1/γ2 subunits; 20 μM ATP, 25 μM PIP2; 20 minutes at room temperature; radioactive PIP3 readout
Method: Spodtera frugiperda cells, grown in ESF921 media, were coinfected with baculovirus expressing a glu-tagged p101 and baculovirus expressing an HA-tagged p110γ, at a 3:1 ratio of p101 baculovirus to p110γ baculovirus. Sf9 cells were grown to 1×10^7 total cells/mL in 10 L bioreactors and harvested 48-72 hours post infection. Samples of infected cells were then tested for expression of p101/p110 γ PI3 kinase by immunoprecipitation and Western Blot analysis methods (see below). To purify PI3Kγ, 4 volumes of room temperature hypotonic lysis buffer (1 mM MgCl2, 1 mM DTT, 5 mM EGTA, 1 mM Pefabloc, 0.5 μM aprotinin, 5 μM leupeptin, 2 μM pepstatin, 5 μM E64, pH 8) per gram of cell paste, was poured onto frozen cell pellets with stirring, then lysed in a nitrogen “bomb” at 400 psi (599HC […], Parr Instrument Co, Moline, Ill.). NaCl was added to 150 mM, and sodium cholate was added to 1% and mixed for another 45 minutes. The lysates were clarified by centrifugation for 25 minutes at 14,000 rpm. The lysates were then loaded over anti-glu-linked Protein-G Sepaharose beads (Covance Research Products, Richmond, Calif.) using 20 mL resin/50 g cell paste. The column was washed with 15 volumes of wash buffer (1 mM DTT, 0.2 mM EGTA, 1 mM Pefabloc, 0.5 μM aprotinin, 5 μM leupeptin, 2 μM pepstatin, 5 μM E64, 150 mM NaCl, 1% sodium cholate, pH 8). PI3Kγ was eluted with 6 column volumes of wash buffer that contain 100 μg/mL of a peptide that competes for binding of the glu tag. The column fractions with the eluted protein (determined by taking OD280 readings) were collected and dialyzed in 0.2 mM EGTA, 1 mM DTT, 1 mM Pefabloc, 5 μM leupeptin, 0.5% sodium cholate, 150 mM NaCl, and 50% glycerol, pH 8. The fractions were stored at -80° C. until further use. Spodtera frugiperda cells were coinfected with baculovirus expressing a glu-tagged G protein β1 and baculovirus expressing a G protein β2, at a 1:1 ratio of glu-tagged G protein β1 baculovirus to G protein β2 baculovirus. Sf9 cells are grown in 10 L bioreactors and harvested 48-72 hours post infection. Samples of infected cells were tested for G protein β1/β2 expression by Western Blot analysis, as described below. Cell lysates were homogenized and loaded onto a column of glu-tagged beads as in Biological Example 1 and competed off the column with a glu peptide and processed as described in Biological Example 1. The inhibitory properties of the compounds in Table 1 were assayed in an in vitro PI3K assay. In a 96-well polypropylene plate, each well was spotted with 2 μL of 50 times the desired final concentration of compound in DMSO. Purified recombinant p101/p110 γ protein (0.03 μg; 2.7 nM) and G protein β1/γ2 subunits (0.09 μg; 57.7 nM) for each reaction was combined in the assay buffer (30 mM HEPES, 100 mM NaCl, 1 mM EGTA, and 1 mM DTT). ATP and [γ-^32P-ATP] (0.09 μCi) were added to this mixture so that the final ATP concentration in the reaction was 20 μM. Lipid micelles were formed by sonicating phosphatidylinositol-4,5-diphosphate (PIP2), phosphatidylethanolamine (PE), and Na-cholate in the assay buffer for 10 minutes, adding MgCl2 and incubating on ice for 20 minutes, for final concentrations of 25 μM PIP2, 300 μM PE, 0.02% Na-cholate, and 10 mM MgCl2 in the reaction. The reactions were started by adding equal volumes lipid and enzyme mixture in a total volume of 50 μL, allowed to run for 20 minutes at room temperature, and stopped with 100 μL 75 mM H3PO4. The lipid product was transferred to a glass fiber filter plate and washed with 75 mM H3PO4 several times. The presence of radioactive lipid product (PIP3) was measured by adding Wallac Optiphase mix to each well and counting in a Wallac 1450 Trilux plate reader (PerkinElmer Life Sciences Inc., Boston, Mass. 02118). The IC50 for each compound tested is reported in μM in Table 1: […]

T1 sequence (P48736 whole entry, species assumed): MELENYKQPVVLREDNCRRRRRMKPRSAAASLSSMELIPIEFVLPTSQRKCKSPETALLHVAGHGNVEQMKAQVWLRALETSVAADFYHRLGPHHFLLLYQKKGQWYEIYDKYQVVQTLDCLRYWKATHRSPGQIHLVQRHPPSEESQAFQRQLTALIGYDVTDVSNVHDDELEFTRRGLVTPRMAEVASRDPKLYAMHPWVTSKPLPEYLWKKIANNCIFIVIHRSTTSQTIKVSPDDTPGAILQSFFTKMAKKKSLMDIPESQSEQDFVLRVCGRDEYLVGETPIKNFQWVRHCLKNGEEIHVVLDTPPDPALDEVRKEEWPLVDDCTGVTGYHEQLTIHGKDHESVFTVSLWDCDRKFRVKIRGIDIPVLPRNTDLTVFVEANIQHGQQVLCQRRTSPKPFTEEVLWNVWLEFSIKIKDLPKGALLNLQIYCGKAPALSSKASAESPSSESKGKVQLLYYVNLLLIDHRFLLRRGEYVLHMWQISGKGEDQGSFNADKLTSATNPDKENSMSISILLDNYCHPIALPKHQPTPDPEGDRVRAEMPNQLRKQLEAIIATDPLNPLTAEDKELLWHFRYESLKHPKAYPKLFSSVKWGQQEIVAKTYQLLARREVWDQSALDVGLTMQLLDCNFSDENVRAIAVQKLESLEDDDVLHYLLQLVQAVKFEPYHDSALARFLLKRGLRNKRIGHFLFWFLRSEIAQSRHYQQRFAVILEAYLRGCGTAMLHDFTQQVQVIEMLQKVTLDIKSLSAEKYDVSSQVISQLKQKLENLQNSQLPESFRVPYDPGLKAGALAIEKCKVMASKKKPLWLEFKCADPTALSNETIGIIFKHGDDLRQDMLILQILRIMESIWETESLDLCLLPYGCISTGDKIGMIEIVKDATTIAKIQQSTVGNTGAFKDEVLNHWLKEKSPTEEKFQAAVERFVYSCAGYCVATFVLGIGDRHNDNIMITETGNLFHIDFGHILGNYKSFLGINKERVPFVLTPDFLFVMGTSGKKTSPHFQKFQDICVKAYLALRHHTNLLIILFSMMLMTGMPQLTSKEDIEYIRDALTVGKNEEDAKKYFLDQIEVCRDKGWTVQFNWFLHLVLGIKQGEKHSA
T1 sequence (Q8WYR1 whole entry partner, species assumed): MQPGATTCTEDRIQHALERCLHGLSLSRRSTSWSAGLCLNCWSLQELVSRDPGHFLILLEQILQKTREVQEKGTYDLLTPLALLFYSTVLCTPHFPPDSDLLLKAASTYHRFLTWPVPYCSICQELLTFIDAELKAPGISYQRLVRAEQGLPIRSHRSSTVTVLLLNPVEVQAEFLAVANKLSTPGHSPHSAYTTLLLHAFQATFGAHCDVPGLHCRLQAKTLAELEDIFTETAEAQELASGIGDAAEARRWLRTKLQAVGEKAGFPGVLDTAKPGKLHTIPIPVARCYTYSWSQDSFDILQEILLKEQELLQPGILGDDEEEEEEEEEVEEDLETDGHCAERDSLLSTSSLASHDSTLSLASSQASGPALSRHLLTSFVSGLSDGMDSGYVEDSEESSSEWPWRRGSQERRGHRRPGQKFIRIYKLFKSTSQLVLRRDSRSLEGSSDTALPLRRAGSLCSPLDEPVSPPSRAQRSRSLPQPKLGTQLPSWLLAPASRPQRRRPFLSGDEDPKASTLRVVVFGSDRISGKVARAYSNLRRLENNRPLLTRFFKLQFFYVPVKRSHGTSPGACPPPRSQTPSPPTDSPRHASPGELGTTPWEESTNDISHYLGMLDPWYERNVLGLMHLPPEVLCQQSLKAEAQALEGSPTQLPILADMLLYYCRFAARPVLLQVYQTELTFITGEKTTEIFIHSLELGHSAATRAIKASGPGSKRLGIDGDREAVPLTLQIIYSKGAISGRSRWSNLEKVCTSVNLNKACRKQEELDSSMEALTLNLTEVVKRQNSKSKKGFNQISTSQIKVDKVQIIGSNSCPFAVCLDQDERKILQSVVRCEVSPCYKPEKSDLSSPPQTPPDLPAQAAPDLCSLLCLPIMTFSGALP

Row | Compound | IC50 [nM]
1 | COc1cc2c(OC3CCCC(C)C3)c(C(=O)Nc3nn[nH]n3)sc2cc1C (single isomer, unassigned) [Example 2, 5-Methoxy-6-methyl-3-(3-methyl-cyclohexyloxy)-benzo[b]thiophene-2-carboxylic acid (2H-tetrazol-5-yl)-amide] | 24
2 | COc1cc2c(OC3CCCC(C)C3)c(C(=O)Nc3nn[nH]n3)sc2cc1C (single isomer, unassigned) [Example 7, 5-Methoxy-6-methyl-3-(3-methyl-cyclohexyloxy)-benzo[b]thiophene-2-carboxylic acid (2H-tetrazol-5-yl)-amide] | 3
3 | COc1cc2c(OC3CCOCC3)c(C(=O)Nc3nn[nH]n3)sc2cc1C [Example 1, 5-Methoxy-6-methyl-3-(tetrahydro-pyran-4-yloxy)-benzo[b]thiophene-2-carboxylic acid (2H-tetrazol-5-yl)-amide] | 24
4 | COc1cc2c(OC3CC(C)(C)CC(C)(C)C3)c(C(=O)Nc3nn[nH]n3)sc2cc1C [Example 3, 5-Methoxy-6-methyl-3-(3,3,5,5-tetramethyl-cyclohexyloxy)-benzo[b]thiophene-2-carboxylic acid (2H-tetrazol-5-yl)-amide] | 165
5 | COc1cc2c(OC3CC(C)CC(C)(C)C3)c(C(=O)Nc3nn[nH]n3)sc2cc1C (stereo not drawn) [Example 4, 5-Methoxy-6-methyl-3-(3,3,5-trimethyl-cyclohexyloxy)-benzo[b]thiophene-2-carboxylic acid (2H-tetrazol-5-yl)-amide] | 9
6 | COc1cc2c(OC3CCCC(C)(C)C3)c(C(=O)Nc3nn[nH]n3)sc2cc1C (stereo not drawn) [Example 5, 3-(3,3-Dimethyl-cyclohexyloxy)-5-methoxy-6-methyl-benzo[b]thiophene-2-carboxylic acid (2H-tetrazol-5-yl)-amide] | 8
7 | COc1cc2c(OC3CCCCC3)c(C(=O)Nc3nn[nH]n3)sc2cc1C [Example 6, 3-Cyclohexyloxy-5-methoxy-6-methyl-benzo[b]thiophene-2-carboxylic acid (2H-tetrazol-5-yl)-amide] | 7
8 | COc1cc2c(OC3CCCCCC3)c(C(=O)Nc3nn[nH]n3)sc2cc1C [Example 8, 3-Cycloheptyloxy-5-methoxy-6-methyl-benzo[b]thiophene-2-carboxylic acid (2H-tetrazol-5-yl)-amide] | 5
9 | COc1cc2c(OC3CCN(Cc4ccccc4)CC3)c(C(=O)Nc3nn[nH]n3)sc2cc1C [Example 9, 3-(1-Benzyl-piperidin-4-yloxy)-5-methoxy-6-methyl-benzo[b]thiophene-2-carboxylic acid (2H-tetrazol-5-yl)-amide] | 250
10 | COc1cc2c(OC3CCCNC3)c(C(=O)Nc3nn[nH]n3)sc2cc1C (stereo not drawn) [Example 10] | 1290
11 | COc1cc2c(OC3CCN(C4CCCCC4)CC3)c(C(=O)Nc3nn[nH]n3)sc2cc1C [Example 11, 3-(1-Cyclohexyl-piperdin-4-yloxy)-5-methoxy-6-methyl-benzo[b]thiophene-2-carboxylic acid (2H-tetrazol-5-yl-amide)] | 965
12 | COc1cc2c(OC3CCNCC3)c(C(=O)Nc3nn[nH]n3)sc2cc1C [Example 12, 5-Methoxy-6-methyl-3-(piperidiny-4yloxy)-benzo[b]thiophene-2-carboxylic acid (2H-tetrazol-5-yl)amide] | 715
13 | COc1cc2c(OC3CCCN(C(C)=O)C3)c(C(=O)Nc3nn[nH]n3)sc2cc1C (stereo not drawn) [Example 13, 3-(1-Acetyl-piperidin-3-yloxy)-5-methyoxy-6-methyl-benzo[b]thiophene-2-carboxylic acid (2H-tetrazol-5-yl)-amide] | 72

Other lines, results leading:

Row | IC50 [nM] | Compound
14 | 32 | 3-(3,5-Dimethyl-cyclohexloxy)-5,6-dimethoxy-benzo[b]thiophene-2-carboxylic acid (1H-tetrazol-5-yl)-amide [Example 34]
15 | 36 | 3-Cycloheptylmethoxy-5,6-dimethoxy-benzo[b]thiophene-2-carboxylic acid (1H-tetrazol-5-yl)-amide [Example 42]
16 | 445 | 5,6-Dimethoxy-3-(3-methyl-oxetan-3-ylmethylmethoxy)-benzo[b]thiophene-2-carboxylic acid (1H-tetrazol-5-yl)-amide [Example 25]
17 | 53 | COc1cc2c(OC3CCCN(C(=O)OC(C)(C)C)C3)c(C(=O)Nc3nn[nH]n3)sc2cc1C (stereo not drawn) [Example 14]
18 | 28 | COc1cc2c(OCCCC3CCCCC3)c(C(=O)Nc3nn[nH]n3)sc2cc1C [Example 15, 3-(3-Cyclohexyl-propoxy)-5-Methoxy-6-methyl-benzo[b}thiophene-2-carboxylic acid (2H-tetrazol-5-yl)amide]
19 | 25 | COc1cc2c(OC3CCN(C(C)=O)CC3)c(C(=O)Nc3nn[nH]n3)sc2cc1C [Example 16, 3-(1-Acetyl-piperidin-4-yloxy)-5-methoxy-6-methyl-benzo[b]thiophene-2-carboxylic acid (2H-tetrazol-5-yl)-amide]
20 | 24 | COc1cc2c(OC3CCN(C(=O)OC(C)(C)C)CC3)c(C(=O)Nc3nn[nH]n3)sc2cc1C [Example 17, 4-[5-Methoxy-6-methyl-2-(2H-tetrazol-5-ylcarbamoyl)-benzo[b]thiophene-3-yloxy]-piperidine-1-carboxylic acid tert-butyl ester]
21 | 20 | COc1cc2c(OCC3(C)CC3)c(C(=O)Nc3nn[nH]n3)sc2cc1C [Example 18, 5-Methoxy-6-methyl-3-(1-methyl-cyclopropylmethoxy)-benzo[b]thiophene-2-carboxylic acid (2H-tetrazol-5-yl)-amide]
22 | 371 | COc1cc2sc(C(=O)Nc3nnn[nH]3)c(OCCC3CC3)c2cc1OC [Example 19, 3-(2-Cyclopropyl-ethoxy)-5,6-dimethoxy-benzo[b]thiophene-2-carboxylic acid (1H-tetrazol-5-yl)-amide]
23 | 453 | COc1cc2sc(C(=O)Nc3nn[nH]n3)c(OCC3CC3(Cl)Cl)c2cc1OC (stereo not drawn) [Example 20, 3-(2,2-Dichloro-cyclopropylmethoxy)-5,6-dimethoxy-benzo[b]thiophene-2-carboxylic acid (2H-tetrazol-5-yl)-amide]
24 | 195 | COc1cc2sc(C(=O)Nc3nnn[nH]3)c(OCC3CCCCC3)c2cc1OC [Example 21, 3-Cyclohexylmethoxy-5,6-dimethoxy-benzo[b]thiophene-2-carboxylic acid (1H-tetrazol-5-yl)-amide]
25 | 34 | COc1cc2sc(C(=O)Nc3nn[nH]n3)c(OC3CCCCC3)c2cc1OC [Example 22, 3-Cyclohexyloxy-5,6-dimethoxy-benzo[b]thiophene-2-carboxylic acid (2H-tetrazol-5-yl)-amide]
26 | 56 | COc1cc2sc(C(=O)Nc3nn[nH]n3)c(OC3CCC(C(C)(C)C)CC3)c2cc1OC (stereo not drawn) [Example 23, 3-(4-tert-Butyl-cyclohexyloxy)-5,6-dimethoxy-benzo[b]thiophene-2-carboxylic acid (2H-tetrazol-5-yl)-amide]
27 | 103 | COc1cc2sc(C(=O)Nc3nnn[nH]3)c(OC3CC(C)CC(C)C3)c2cc1OC (stereo not drawn) [Example 24, 3-(3,5-dimethyl-cyclohexyloxy)-5,6-dimethoxy-benzo[b]thiophene-2-carboxylic acid (2H-tetrazol-5-yl)-amide]

From patent US20050020630A1, “Cycloalkyl and heterocycloalkyl substituted benzothiophenes as therapeutic agents” (priority 2003, published 2005)
